# Test results as given in PubChem BioAssay AID2060893 (Molecular Pharmacology Branch, DTP, NCI, 2025).
# System: K86415-001-R-J1-PDC complex spheroids, viability
# Assay: Anticancer human tumor K86415-001-R-J1-PDC patient-derived lung adenocarcinoma cell line growth inhibition [RAS]
# Conditions: for IC50: curve of first compound; for viability, T/C: stronger effect = lower value
# Outline: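 Agents were tested in combination matrices in half-log decrements from a top concentration at or near clinical Cmax (10 microM if undetermined). Targets were multi-cell spheroids of tumour lines plus HUVEC and MSC stromal cells.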
# [1] = second compound 0.000949 µM, first compound 0.0316 µM
# [2] = second compound 0.000949 µM, first compound 0.1 µM
# [3] = second compound 0.000949 µM, first compound 0.316 µM
# [4] = second compound 0.000949 µM, first compound 1 µM
# [5] = second compound 0.003 µM, first compound 0.0316 µM
# [6] = second compound 0.003 µM, first compound 0.1 µM
# [7] = second compound 0.003 µM, first compound 0.316 µM
# [8] = second compound 0.003 µM, first compound 1 µM
# [9] = second compound 0.00949 µM, first compound 0.0316 µM
# [10] = second compound 0.00949 µM, first compound 0.1 µM
# [11] = second compound 0.00949 µM, first compound 0.316 µM
# [12] = second compound 0.00949 µM, first compound 1 µM
# [13] = second compound 0.03 µM, first compound 0.0316 µM
# [14] = second compound 0.03 µM, first compound 0.1 µM
# [15] = second compound 0.03 µM, first compound 0.316 µM
# [16] = second compound 0.03 µM, first compound 1 µM
# [17] = second compound 0.0949 µM, first compound 0.0316 µM
# [18] = second compound 0.0949 µM, first compound 0.1 µM
# [19] = second compound 0.0949 µM, first compound 0.316 µM
# [20] = second compound 0.0949 µM, first compound 1 µM
# [21] = second compound 0.3 µM, first compound 0.0316 µM
# [22] = second compound 0.3 µM, first compound 0.1 µM
# [23] = second compound 0.3 µM, first compound 0.316 µM
# [24] = second compound 0.3 µM, first compound 1 µM
# [25] = second compound 0.000949 µM, first compound 3.16 µM
# [26] = second compound 0.000949 µM, first compound 10 µM
# [27] = second compound 0.003 µM, first compound 3.16 µM
# [28] = second compound 0.003 µM, first compound 10 µM
# [29] = second compound 0.00949 µM, first compound 3.16 µM
# [30] = second compound 0.00949 µM, first compound 10 µM
# [31] = second compound 0.03 µM, first compound 3.16 µM
# [32] = second compound 0.03 µM, first compound 10 µM
# [33] = second compound 0.0949 µM, first compound 3.16 µM
# [34] = second compound 0.0949 µM, first compound 10 µM
# [35] = second compound 0.3 µM, first compound 3.16 µM
# [36] = second compound 0.3 µM, first compound 10 µM
# 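Further: spheroids exposed to agents for seven days before readout.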
smiles,measurement,setting,value
CCN1CCN(Cc2ccc(Nc3ncc(F)c(-c4cc(F)c5nc(C)n(C(C)C)c5c4)n3)nc2)CC1 + CCn1c(-c2cccnc2C(C)OC)c2c3cc(ccc31)N1CCOC(CC(NC(=O)C(C(C)C)N(C)C(=O)C3(F)CCN(C(=O)C#CC(C)(C)N(C)C)CC3)C(=O)N3CCCC(N3)C(=O)OCC(C)(C)C2)C1,IC50,second compound 0.000949 µM,< 3.16 nM
same,IC50,second compound 0.003 µM,< 3.16 nM
same,IC50,second compound 0.00949 µM,< 3.16 nM
same,IC50,second compound 0.03 µM,< 3.16 nM
same,IC50,second compound 0.0949 µM,< 3.16 nM
same,IC50,second compound 0.3 µM,< 3.16 nM
same,"viability, T/C","second compound 0.000949 µM, first compound 0.00316 µM",39.1%
same,"viability, T/C","second compound 0.000949 µM, first compound 0.01 µM",31.2%
same,"viability, T/C",[1],20%
same,"viability, T/C",[2],30.3%
same,"viability, T/C",[3],31.1%
same,"viability, T/C",[4],20.5%
same,"viability, T/C","second compound 0.003 µM, first compound 0.00316 µM",12.1%
same,"viability, T/C","second compound 0.003 µM, first compound 0.01 µM",13.1%
same,"viability, T/C",[5],12.2%
same,"viability, T/C",[6],13.9%
same,"viability, T/C",[7],16.7%
same,"viability, T/C",[8],14.6%
same,"viability, T/C","second compound 0.00949 µM, first compound 0.00316 µM",11.7%
same,"viability, T/C","second compound 0.00949 µM, first compound 0.01 µM",12.4%
same,"viability, T/C",[9],10.6%
same,"viability, T/C",[10],11.8%
same,"viability, T/C",[11],14.3%
same,"viability, T/C",[12],19.3%
same,"viability, T/C","second compound 0.03 µM, first compound 0.00316 µM",14%
same,"viability, T/C","second compound 0.03 µM, first compound 0.01 µM",11.8%
same,"viability, T/C",[13],11.1%
same,"viability, T/C",[14],14%
same,"viability, T/C",[15],14.5%
same,"viability, T/C",[16],13.9%
same,"viability, T/C","second compound 0.0949 µM, first compound 0.00316 µM",12.4%
same,"viability, T/C","second compound 0.0949 µM, first compound 0.01 µM",14.8%
same,"viability, T/C",[17],15.8%
same,"viability, T/C",[18],14.8%
same,"viability, T/C",[19],14.4%
same,"viability, T/C",[20],13.8%
same,"viability, T/C","second compound 0.3 µM, first compound 0.00316 µM",13.6%
same,"viability, T/C","second compound 0.3 µM, first compound 0.01 µM",12%
same,"viability, T/C",[21],11.1%
same,"viability, T/C",[22],10.8%
same,"viability, T/C",[23],9.64%
same,"viability, T/C",[24],11.7%
CC(Nc1ccc2c(c1)OCCn1cc(N3C(=O)OCC3C(F)F)nc1-2)C(N)=O (stereo unspecified) + CCn1c(-c2cccnc2C(C)OC)c2c3cc(ccc31)N1CCOC(CC(NC(=O)C(C(C)C)N(C)C(=O)C3(F)CCN(C(=O)C#CC(C)(C)N(C)C)CC3)C(=O)N3CCCC(N3)C(=O)OCC(C)(C)C2)C1,IC50,second compound 0.000949 µM,< 31.6 nM
same,IC50,second compound 0.003 µM,< 31.6 nM
same,IC50,second compound 0.00949 µM,< 31.6 nM
same,IC50,second compound 0.03 µM,< 31.6 nM
same,IC50,second compound 0.0949 µM,< 31.6 nM
same,IC50,second compound 0.3 µM,< 31.6 nM
same,"viability, T/C",[1],26.6%
same,"viability, T/C",[2],24.9%
same,"viability, T/C",[3],14.1%
same,"viability, T/C",[4],24.3%
same,"viability, T/C",[25],8.98%
same,"viability, T/C",[26],1.64%
same,"viability, T/C",[5],11.9%
same,"viability, T/C",[6],8%
same,"viability, T/C",[7],6.61%
same,"viability, T/C",[8],4.14%
same,"viability, T/C",[27],2.69%
same,"viability, T/C",[28],0.95%
same,"viability, T/C",[9],9.31%
same,"viability, T/C",[10],8.26%
same,"viability, T/C",[11],6.9%
same,"viability, T/C",[12],3.65%
same,"viability, T/C",[29],1.68%
same,"viability, T/C",[30],1.1%
same,"viability, T/C",[13],8.58%
same,"viability, T/C",[14],7.61%
same,"viability, T/C",[15],6.15%
same,"viability, T/C",[16],2.63%
same,"viability, T/C",[31],1.91%
same,"viability, T/C",[32],1.86%
same,"viability, T/C",[17],10.4%
same,"viability, T/C",[18],8.62%
same,"viability, T/C",[19],4.05%
same,"viability, T/C",[20],3.24%
same,"viability, T/C",[33],1.57%
same,"viability, T/C",[34],1.22%
same,"viability, T/C",[21],8.96%
same,"viability, T/C",[22],6.86%
same,"viability, T/C",[23],3.94%
same,"viability, T/C",[24],2.09%
same,"viability, T/C",[35],1.58%
same,"viability, T/C",[36],1.59%
C[C@@H](NC(=O)c1ncnc(N)c1Cl)c1ncc(C(=O)Nc2cc(C(F)(F)F)c(Cl)cn2)s1 + CCn1c(-c2cccnc2C(C)OC)c2c3cc(ccc31)N1CCOC(CC(NC(=O)C(C(C)C)N(C)C(=O)C3(F)CCN(C(=O)C#CC(C)(C)N(C)C)CC3)C(=O)N3CCCC(N3)C(=O)OCC(C)(C)C2)C1,IC50,second compound 0.000949 µM,< 31.6 nM
same,IC50,second compound 0.003 µM,< 31.6 nM
same,IC50,second compound 0.00949 µM,< 31.6 nM
same,IC50,second compound 0.03 µM,< 31.6 nM
same,IC50,second compound 0.0949 µM,< 31.6 nM
same,IC50,second compound 0.3 µM,< 31.6 nM
same,"viability, T/C",[1],44.6%
same,"viability, T/C",[2],55.7%
same,"viability, T/C",[3],35.6%
same,"viability, T/C",[4],56.4%
same,"viability, T/C",[25],45.2%
same,"viability, T/C",[26],21.5%
same,"viability, T/C",[5],18.7%
same,"viability, T/C",[6],15.2%
same,"viability, T/C",[7],16.7%
same,"viability, T/C",[8],16.3%
same,"viability, T/C",[27],16.3%
same,"viability, T/C",[28],12.6%
same,"viability, T/C",[9],14.2%
same,"viability, T/C",[10],14%
same,"viability, T/C",[11],13.8%
same,"viability, T/C",[12],14.1%
same,"viability, T/C",[29],12.6%
same,"viability, T/C",[30],13.3%
same,"viability, T/C",[13],14.6%
same,"viability, T/C",[14],14.2%
same,"viability, T/C",[15],17%
same,"viability, T/C",[16],16.4%
same,"viability, T/C",[31],13.6%
same,"viability, T/C",[32],12.3%
same,"viability, T/C",[17],12.1%
same,"viability, T/C",[18],14.3%
same,"viability, T/C",[19],12.7%
same,"viability, T/C",[20],14.5%
same,"viability, T/C",[33],13.6%
same,"viability, T/C",[34],13.8%
same,"viability, T/C",[21],12%
same,"viability, T/C",[22],13.5%
same,"viability, T/C",[23],14.9%
same,"viability, T/C",[24],15.3%
same,"viability, T/C",[35],13.8%
same,"viability, T/C",[36],13.1%
